The source of these data is US5120835A, “Saccharide derivatives of protocatechualdehyde” (Kureha Chemical Industry Co., Ltd., priority 1989, dated 1992).

Data set [1] has as its system blood platelet agglutination. The note with it: in vitro, low concentration level; cited from earlier work.
For data set [2] the following is noted: in vivo; cited from earlier work.
The next data set concerns leukocytic migration. The note with it: in vitro, low concentration level; cited from earlier work.
In a further data set the test system is granuloma growth. Description: Granuloma growth inhibiting effect (paper disk implanted subcutaneously in rats). It counts as in vivo, male Donryu rats. The note with it: oral, 10 days; for Granuloma Dry weight (mean): control 131.9 mg. The method, then:
Effects of inhibiting granuloma growth were investigated by the method proposed by Fujimura et al. [Oyo Yakuri, 19 (3), 329 (1980)], using five-week old male Donryu rats. As paper disks, filter papers measuring 13 mm.0. and 28 mg and soaked in […] CMC solution (containing 0.1 mg/ml of 1 million unit dihydroxystreptomycin and penicillin, respectively) were used. A paper disk was implanted subcutaneously in the back of the rat under anesthesia. The test drugs dispersed in 0.3% CMC solutions were administered orally for 10 days; then, on the 11th day the granulomas were removed and their weights were measured. To the control group were administered the original 0.3% CMC solution containing no test drug.

Data set [3] can be described thus: Acute toxicity in mice (LD50, Litchfield-Wilcoxon method). The note with it: mouse, in vivo, Jcl:ICR female mice, observed for 7 days. The protocol:
The prescribed amounts of the test drugs dispersed in 0.3% CMC aqueous solution at a rate of 20 mg/ml for oral administration and the test drugs dissolved in 10% ethanol isotonic sodium chloride solution as a rate of 200 mg/ml for intraperitoneal administration were applied using gastric probes and syringes, respectively.

Another data set relates to male mice. The note with it: DRUGS IN JAPAN (ETHICAL DRUGS), 9th Edition (1985), p.105; cited from earlier work.
Data set [4] is described as follows: Toxicity compared in words. In kind it is in vivo. The note with it: from LD50 of reference against LD50 of Table 1.
The subject of another data set is male rats. The note with it: DRUGS IN JAPAN (ETHICAL DRUGS), 9th Edition (1985), p.105; cited from earlier work.
The mark [5] stands for this setting: ip, intraperitoneal, dissolved in 10% ethanol isotonic sodium chloride solution, read-out: LD50, Intraperitoneal Administration.
[6] abbreviates: oral, dispersed in 0.3% CMC aqueous solution, read-out: LD50, Oral Administration.

Like-named read-outs stand apart in the source and are kept apart here. Some results are limits rather than exact numbers.

Turning to `O=Cc1ccc(O)c(O)c1` [PAL, protocatechualdehyde], the “Inhibiting blood platelet agglutination (in words)” value in data set [1] is reported as “shows a suitable effect”. In addition, the “Metabolic rate (in words)” value in data set [2] is recorded as “higher metabolic rate”. Also, the “Inhibiting leukocytic migration (in words)” value in the data set with leukocytic migration is recorded as “shows a suitable effect”. Moreover, in the data set on granuloma growth (50 mg/kg/day), the “Granuloma Inhibition rate” value was found to be 34.2% and the “Granuloma Dry weight (mean)” value amounted to 86.8 mg.
As to `CO[C@H]1O[C@@H]2COC(c3ccc(OC(=O)c4ccccc4)c(OC(=O)c4ccccc4)c3)O[C@H]2[C@H](O)[C@H]1O` (stereo partly drawn) [Ia1, Methyl-4,6-O-(3',4'-dibenzoyloxybenzylidene)-α-D-glucopyranoside], the “Granuloma Inhibition rate” value in the data set on granuloma growth (10 mg/kg/day) is given as 29.8%; in the data set on granuloma growth (50 mg/kg/day), 43.7%. The “Granuloma Dry weight (mean)” value in the data set on granuloma growth (10 mg/kg/day) was found to be 92.6 mg; with granuloma growth (50 mg/kg/day), 74.3 mg. Besides, the LD50 at 168 h was 1900 mg/kg in data set [3] (setting [5]) and above 4000 mg/kg in data set [3] (setting [6]).
As for `CO[C@H]1O[C@@H]2COC(c3ccc(O)c(O)c3)O[C@H]2[C@H](O)[C@H]1O` (stereo partly drawn) [Ib1, Methyl-4,6-O-(3',4'-dihydroxybenzylidene)-α-D-glucopyranoside], the “Granuloma Inhibition rate” value is 30.7% in the data set on granuloma growth (10 mg/kg/day) and 50.0% in the data set on granuloma growth (50 mg/kg/day). Further, the “Granuloma Dry weight (mean)” value with granuloma growth (10 mg/kg/day) is recorded as 91.4 mg; in the data set on granuloma growth (50 mg/kg/day), 66.0 mg. The LD50 at 168 h in data set [3] (setting [5]) is above 3000 mg/kg; in data set [3] (setting [6]) it was above 4000 mg/kg.
Regarding `COc1ccc2c(c1)c(CC(=O)O)c(C)n2C(=O)c1ccc(Cl)cc1` [Indomethacin, indomethacin], the LD50 value in the data set with male mice is 30.2 mg/kg. In addition, the “Toxicity compared with PAL and the compounds of the present invention (in words)” value in data set [4] is “more toxic than both PAL and the compounds of the present invention”. For the same molecule, in the data set with granuloma growth (3 mg/kg/day), the “Granuloma Inhibition rate” value is given as 45.9% and the “Granuloma Dry weight (mean)” value is given as 71.3 mg. The LD50 value with male rats is on record as 29 mg/kg.
